From US6890942B2, “Acyl sulfonamides as inhibitors of HIV integrase” (Bristol-Myers Squibb Company, priority 2003, dated 2005)

System: not given
Assay: not given
Settings: not given

Q: With `CON(Cc1ccc(F)cc1)C(=O)/C=C(\O)C(=O)NS(C)(=O)=O` [Example 2, 3-Hydroxy-4-methanesulfonylamino-4-oxo-but-2-enoic acid (4-fluoro-benzyl)-methoxy-amide] as the molecule, how does the melting point read?
A: 137 °C (dec.)

Q: Which melting point does the source give for `CON(Cc1ccc(C(=O)O)cc1)C(=O)/C=C(\O)C(=O)NS(C)(=O)=O` [Example 21, 4-{[(3-Hydroxy-4-methanesulfonylamino-4-oxo-but-2-enoyl)-methoxy-amino]-methyl}-benzoic acid] here?
A: 119 to 124 °C

Q: With `CON(Cc1ccc(F)c(C)c1)C(=O)/C=C(\O)C(=O)NS(C)(=O)=O` [Example 22, 3-Hydroxy-4-methanesulfonylamino-4-oxo-but-2-enoic acid (4-fluoro-3-methyl-benzyl)-methoxy-amide] as the molecule, how does the melting point read?
A: 138 °C (dec.)

Q: For `CON(Cc1ccc(F)cc1Cl)C(=O)/C=C(\O)C(=O)NS(C)(=O)=O` [Example 28, 3-Hydroxy-4-methanesulfonylamino-4-oxo-but-2-enoic acid (2-chloro-4-fluoro-benzyl)-methoxy-amide], which melting point is on record?
A: 144 °C (dec.)

Molecular target: T1, HIV-integrase (Human immunodeficiency virus type 1 group M subtype B, UniProt P04585)
T1 construct: 0.26 ng of recombinant integrase was incubated with the beads
Assay: HIV-Integrase Inhibition Activity (SPA bead strand-transfer assay)
Assay type: biochemical
Settings: 10 μM compound; recombinant integrase
Method: For each reaction, 5 pmole of biotin labeled substrate DNA was bound to 100 ug of Streptavidin coated PVT SPA beads (Amersham Pharmacia Biotech). 0.26 ng of recombinant integrase was incubated with the beads for 90 min at 37 C. Unbound enzyme was removed by washing the complex followed by addition of inhibitors and 0.1 fmol of P33 labeled target DNA. Reaction was stopped by adding EDTA to a final concentration of 10 mM. Samples were counted in TopCountNXT (Packard) and the CPM was used as a measure of integration. Reaction condition was as described in A. Engelman and R. Craigie, J. Virol. 69, 5908-5911 (1995). The sequences of substrate and target DNA were described in Nucleic Acid Research 22, 1121-1122 (1994). Compounds of this invention tested in this assay have IC50's of approximately 0.01 to 25 μM.

Q: With `CON(Cc1ccc(F)cc1)C(=O)/C=C(\O)C(=O)NS(=O)(=O)c1ccc(C)cc1` [Example 1, 3-Hydroxy-4-oxo-4-(toluene-4-sulfonylamino)-but-2-enoic acid (4-fluoro-benzyl)-methoxy-amide] as the molecule, how does the inhibition at 10 µM read?
A: 99%

Q: Which inhibition at 10 µM does the source give for `CON(Cc1ccc(F)cc1)C(=O)/C=C(\O)C(=O)NS(C)(=O)=O` [Example 2, 3-Hydroxy-4-methanesulfonylamino-4-oxo-but-2-enoic acid (4-fluoro-benzyl)-methoxy-amide] here?
A: 99%

Q: Which inhibition at 10 µM does the source give for `CON(Cc1ccc(F)cc1)C(=O)/C=C(\O)C(=O)NS(=O)(=O)c1nnc(NC(C)=O)s1` [Example 3, 4-(5-Acetylamino-[1,3,4]thiadiazole-2-sulfonylamino)-3-hydroxy-4-oxo-but-2-enoic acid (4-fluoro-benzyl)-methoxy-amide] here?
A: 99%

Q: Which inhibition at 10 µM does the source give for `CON(Cc1ccc(F)cc1)C(=O)/C=C(\O)C(=O)NS(=O)(=O)CC1CCC1` [Example 4, 4-Cyclobutylmethanesulfonylamino-3-hydroxy4-oxo-but-2-enoic acid (4-fluoro-benzyl)-methoxy-amide] here?
A: 99%

Q: For `CON(Cc1ccc(F)cc1)C(=O)/C=C(\O)C(=O)NS(=O)(=O)C1CCCCC1` [Example 5, 4-Cyclohexanesulfonylamino-3-hydroxy-4-oxo-but-2-enoic acid (4-fluoro-benzyl)-methoxy-amide], which inhibition at 10 µM is on record?
A: 99%

Q: For `CON(Cc1ccc(F)cc1)C(=O)/C=C(\O)C(=O)NS(=O)(=O)C1CCCC1` [Example 6, 4-Cyclopentanesulfonylamino-3-hydroxy-4-oxo-but-2-enoic acid (4-fluoro-benzyl)-methoxy-amide], which inhibition at 10 µM is on record?
A: 99%

Q: For `CON(Cc1ccc(F)cc1)C(=O)/C=C(\O)C(=O)NS(=O)(=O)C1CC1` [Example 7, 4-Cyclopropanesulfonylamino-3-hydroxy-4-oxo-but-2-enoic acid (4-fluoro-benzyl)-methoxy-amide], which inhibition at 10 µM is on record?
A: 99%

Q: Which inhibition at 10 µM does the source give for `CON(Cc1ccc(F)cc1)C(=O)/C=C(\O)C(=O)NS(=O)(=O)c1c(C)noc1C` [Example 8, 4-(3,5-Dimethyl-isoxazole-4-sulfonylamino)-3-hydroxy-4-oxo-but-2-enoic acid (4-fluoro-benzyl)-methoxy-amide] here?
A: 99%

Q: Which inhibition at 10 µM does the source give for `CON(Cc1ccc(F)cc1)C(=O)/C=C(\O)C(=O)NS(=O)(=O)c1cccc(C)n1` [Example 9, 3-Hydroxy-4-(6-methyl-pyridine-2-sulfonylamino)-4-oxo-but-2-enoic acid (4-fluoro-benzyl)-methoxy-amide] here?
A: 94%

Q: Which inhibition at 10 µM does the source give for `CON(Cc1ccc(F)cc1)C(=O)/C=C(\O)C(=O)NS(=O)(=O)c1ccc(Cl)s1` [Example 10, 4-(5-Chloro-thiophene-2-sulfonylamino)-3-hydroxy-4-oxo-but-2-enoic acid (4-fluoro-benzyl)-methoxy-amide] here?
A: 95%

Q: For `CON(Cc1ccc(F)cc1)C(=O)/C=C(\O)C(=O)NS(=O)(=O)c1ccc(NC(C)=O)cc1` [Example 11, 4-(4-Acetylamino-benzenesulfonylamino)-3-hydroxy-4-oxo-but-2-enoic acid (4-fluoro-benzyl)-methoxy-amide], which inhibition at 10 µM is on record?
A: 99%

Q: For `CCOc1ccc2nc(S(=O)(=O)NC(=O)C(O)=CC(=O)N(Cc3ccc(F)cc3)OC)sc2c1` [Example 12, 4-(6-Ethoxy-benzothiazole-2-sulfonylamino)-3-hydroxy-4-oxo-but-2-enoic acid (4-fluoro-benzyl)-methoxy-amide], which inhibition at 10 µM is on record?
A: 99%

Q: With `CON(Cc1ccc(F)cc1)C(=O)/C=C(\O)C(=O)NS(=O)(=O)c1sc(C)nc1C` [Example 13, 4-(2,4-Dimethyl-thiazole-5-sulfonylamino)-3-hydroxy-4-oxo-but-2-enoic acid (4-fluoro-benzyl)-methoxy-amide] as the molecule, how does the inhibition at 10 µM read?
A: 98%

Q: With `CON(Cc1ccc(F)cc1)C(=O)/C=C(\O)C(=O)NS(=O)(=O)c1cn(C)cn1` [Example 14, 3-Hydroxy-4-(1-methyl-1H-imidazole-4-sulfonylamino)-4-oxo-but-2-enoic acid (4-fluoro-benzyl)-methoxy-amide] as the molecule, how does the inhibition at 10 µM read?
A: 93%

Q: For `CCN1CCCC1CNC(=O)c1cc(S(=O)(=O)NC(=O)/C(O)=C/C(=O)N(Cc2ccc(F)cc2)OC)ccc1OC` (stereo not shown) [Example 15, N-(1-Ethyl-pyrrolidin-2-ylmethyl)-5-[3-[(4-fluoro-benzyl)-methoxy-carbamoyl]-2-hydroxy-acryloylsulfamoyl]-2-methoxy-benzamide], which inhibition at 10 µM is on record?
A: 93%

Q: Which inhibition at 10 µM does the source give for `CON(Cc1ccc(F)cc1)C(=O)/C=C(\O)C(=O)NS(=O)(=O)C1CCS(=O)(=O)C1` (stereo not shown) [Example 16, 4-(1,1-Dioxo-tetrahydro-1×6-thiophene-3-sulfonylamino)-3-hydroxy-4-oxo-but-2-enoic acid (4-fluoro-benzyl)-methoxy-amide] here?
A: 98%

Q: With `CON(Cc1ccc(F)cc1)C(=O)/C=C(\O)C(=O)NS(=O)(=O)c1ccc(-c2cc(C(F)(F)F)n(C)n2)s1` [Example 17, 3-Hydroxy-4-[5-(1-methyl-5-trifluoromethyl-1H-pyrazol-3-yl)-thiophene-2-sulfonylamino]-4-oxo-but-2-enoic acid (4-fluoro-benzyl)-methoxy-amide] as the molecule, how does the inhibition at 10 µM read?
A: 99%

Q: Which inhibition at 10 µM does the source give for `CCCC1(S(=O)(=O)NC(=O)/C(O)=C/C(=O)N(Cc2ccc(F)cc2)OC)CC1` [Example 18, 3-Hydroxy-4-oxo-4-(1-propyl-cyclopropanesulfonylamino)-but-2-enoic acid (4-fluoro-benzyl)-methoxy-amide] here?
A: 99%

Q: For `CON(Cc1ccc(F)cc1)C(=O)/C=C(\O)C(=O)NS(=O)(=O)C1(CC2CC2)CC1` [Example 19, 4-(1-Cyclopropylmethyl-cyclopropanesulfonylamino)-3-hydroxy-4-oxo-but-2-enoic acid (4-fluoro-benzyl)-methoxy-amide], which inhibition at 10 µM is on record?
A: 99%

Q: Which inhibition at 10 µM does the source give for `CON(Cc1ccc(F)cc1)C(=O)/C=C(\O)C(=O)NS(=O)(=O)C1(Cc2ccccc2)CC1` [Example 20, 4-(1-Benzyl-cyclopropanesulfonylamino)-3-hydroxy-4-oxo-but-2-enoic acid (4-fluoro-benzyl)-methoxy-amide] here?
A: 99%

Q: For `CON(Cc1ccc(C(=O)O)cc1)C(=O)/C=C(\O)C(=O)NS(C)(=O)=O` [Example 21, 4-{[(3-Hydroxy-4-methanesulfonylamino-4-oxo-but-2-enoyl)-methoxy-amino]-methyl}-benzoic acid], which inhibition at 10 µM is on record?
A: 30%

Q: Which inhibition at 10 µM does the source give for `CON(Cc1ccc(F)c(C)c1)C(=O)/C=C(\O)C(=O)NS(C)(=O)=O` [Example 22, 3-Hydroxy-4-methanesulfonylamino-4-oxo-but-2-enoic acid (4-fluoro-3-methyl-benzyl)-methoxy-amide] here?
A: 99%

Q: With `CON(Cc1ccccc1OC(C)C)C(=O)/C=C(\O)C(=O)NS(C)(=O)=O` [Example 23, 3-Hydroxy-4-methanesulfonylamino-4-oxo-but-2-enoic acid (2-isopropoxy-benzyl)-methoxy-amide] as the molecule, how does the inhibition at 10 µM read?
A: 99%

Q: For `CON(Cc1ccc(C(=O)OC(C)(C)C)cc1)C(=O)/C=C(\O)C(=O)NS(C)(=O)=O` [Example 24, 4-{[(3-Hydroxy-4-methanesulfonylamino-4-oxo-but-2-enoyl)-methoxy-amino]-methyl}-benzoic acid tert-butyl ester], which inhibition at 10 µM is on record?
A: 15%

Q: With `CON(Cc1ccc(C)c(F)c1)C(=O)/C=C(\O)C(=O)NS(C)(=O)=O` [Example 25, 3-Hydroxy-4-methanesulfonylamino-4-oxo-but-2-enoic acid (3-fluoro-4-methyl-benzyl)-methoxy-amide] as the molecule, how does the inhibition at 10 µM read?
A: 99%

Q: Which inhibition at 10 µM does the source give for `CON(C(=O)/C=C(\O)C(=O)NS(C)(=O)=O)C(C)c1ccc(F)cc1` (stereo not shown) [Example 26, 3-Hydroxy-4-methanesulfonylamino-4-oxo-but-2-enoic acid[1-(4-fluoro-phenyl)-ethyl]-methoxy-amide] here?
A: 99%

Q: With `CON(C(=O)/C=C(\O)C(=O)NS(C)(=O)=O)C(c1ccc(F)cc1)c1ccc(F)cc1` [Example 27, 3-Hydroxy-4-methanesulfonylamino-4-oxo-but-2-enoic acid [bis-(4-fluoro-phenyl)-methyl]-methoxy-amide] as the molecule, how does the inhibition at 10 µM read?
A: 60%

Q: For `CON(Cc1ccc(F)cc1Cl)C(=O)/C=C(\O)C(=O)NS(C)(=O)=O` [Example 28, 3-Hydroxy-4-methanesulfonylamino-4-oxo-but-2-enoic acid (2-chloro-4-fluoro-benzyl)-methoxy-amide], which inhibition at 10 µM is on record?
A: 99%

Q: For `CN(C(=O)/C=C(\O)C(=O)NS(C)(=O)=O)C(Cc1ccc(Cl)cc1)Cc1ccc(Cl)cc1` [Example 29, 3-Hydroxy-4-methanesulfonylamino-4-oxo-but-2-enoic acid [1-(4-chloro-benzyl)-2-(4-chloro-phenyl)-ethyl]-methyl-amide], which inhibition at 10 µM is on record?
A: 86%

Q: For `CON(CCCc1ccc(F)cc1)C(=O)/C=C(\O)C(=O)NS(C)(=O)=O` [Example 30, 3-Hydroxy-4-methanesulfonylamino-4-oxo-but-2-enoic acid [3-(4-fluoro-phenyl)-propyl]-methoxy-amide], which inhibition at 10 µM is on record?
A: 98%
